Reference: patent US11000033B2, “Ketone or oxime compound, and herbicide” (NISSAN CHEMICAL CORPORATION, priority 2014, dated 2021)

What was measured:
Format in all cases: in vivo
transplanted rice plant = assay: Test Example 1: effect on crop, application before weed generation in submerged conditions (symbol a); settings: application herbicide amount 320 g/ha
Method in brief: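 Rice at 2.5 leaf stage transplanted into submerged soil (4 cm depth) sown with three weed species; herbicide applied before weed emergence.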

Abutilon theophrasti [1] = assay: Test Example 4: herbicidal effect by soil treatment (symbol M); settings: for M (Abutilon theophrasti) herbicidal effect grade: application herbicide amount 320 g/ha
Method in brief: (§1)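 Seeds were sown in sterilized diluvial soil, covered with about 1.5 cm of soil, and the soil surface was sprayed with a water-diluted emulsion of the compound at a predetermined rate. Plants grew in a greenhouse at 25° C. to 30° C.; effects were scored visually 3 weeks after application.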

Lolium multiflorum Lam. = assay: Test Example 5: herbicidal effect by foliage application, plastic box (symbol K); settings: 320 g/ha, 3 weeks after application
Method in brief: (§2)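 Post-emergence spray; diluvial soil (sterilized), ~1.5 cm seed cover; greenhouse 25–30° C; 14-day-old plants; water-diluted emulsion at predetermined dose; visual score at 3 wk post-treatment.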

Setaria viridis = assay: Test Example 5: herbicidal effect by foliage application, plastic box (symbol G); settings: 320 g/ha, 3 weeks after application
Method in brief: as §2

Abutilon theophrasti [2] = assay: Test Example 5: herbicidal effect by foliage application, plastic box (symbol M); settings: 320 g/ha, 3 weeks after application
Method in brief: as §2

beet [3] = assay: Test Example 5: effect on crop by foliage application, plastic box (symbol f); settings: 320 g/ha, 3 weeks after application
Method in brief: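 Box culture: sterile diluvial soil, seeds spot-sown, ~1.5 cm cover, raised under glass at 25–30° C.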

beet [4] = assay: Test Example 4: effect on crop by soil treatment (symbol f); settings: for f (beet) effect on crop grade: application herbicide amount 320 g/ha
Method in brief: (§3)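 Sterilized diluvial soil, spot sowing, ~1.5 cm soil cover; greenhouse 25–30° C.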

soybean = assay: Test Example 4: effect on crop by soil treatment (symbol d); settings: for d (soybean) effect on crop grade: application herbicide amount 320 g/ha
Method in brief: as §3

Scirpus juncoides = assay: Test Example 2: herbicidal activity, application during weed generation in submerged conditions (symbol B); settings: Table 23; application herbicide amount 320 g/ha; grade 0-5 by criteria of Test Example 1
Method in brief: (§4)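 Steps: fill pots with alluvial soil; add water to 4 cm depth; co-sow the three weeds; grow at 25° C. to 30° C. under glass; at 1–2 leaves, dose the floodwater with diluted emulsion; rate damage visually after 3 weeks.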

Avena fatua = assay: Test Example 4: herbicidal effect by soil treatment (symbol I); settings: for I (Avena fatua) herbicidal effect grade: application herbicide amount 320 g/ha
Method in brief: as §1

Leptochloa chinensis = assay: Test Example 3: herbicidal effect by foliage application, Wagner pot (symbol D); settings: application herbicide amount 320 g/ha
Method in brief: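 Post-emergence, paddy-type test: seedlings 14 d old in shallow-flooded (0.1–0.5 cm) alluvial soil, 25–30 °C greenhouse. Emulsion diluted to target rate, sprayed on leaves. Read-out: visual effect on each species at 3 weeks, per set criteria.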

[5] = system: Echinochloa oryzacola Vasing.; assay: Test Example 2: herbicidal activity, application during weed generation in submerged conditions (symbol A); settings: Table 23; application herbicide amount 320 g/ha; grade 0-5 by criteria of Test Example 1
Method in brief: as §4

SMILES | Effect grade on crop, a: transplanted rice plant (transplanted rice plant) | M: Abutilon theophrasti, herbicidal effect grade (Abutilon theophrasti [1]; 320 g/ha) | K: Lolium multiflorum Lam., herbicidal effect (criteria 0-5) (Lolium multiflorum Lam.) | G: Setaria viridis, herbicidal effect (criteria 0-5) (Setaria viridis) | M: Abutilon theophrasti, herbicidal effect (criteria 0-5) (Abutilon theophrasti [2]) | f: beet, effect on crop (criteria 0-5) (beet [3]) | f: beet, effect grade on crop (beet [4]; 320 g/ha) | d: soybean, effect grade on crop (soybean; 320 g/ha) | Herbicidal effect grade, B: Scirpus juncoides (Scirpus juncoides) | I: Avena fatua, herbicidal effect grade (Avena fatua; 320 g/ha) | herbicidal effect on D (Leptochloa chinensis), grade 0-5 (Leptochloa chinensis) | Herbicidal effect grade, A: Echinochloa oryzacola Vasing. [5] | M (Abutilon theophrasti) herbicidal effect grade (Abutilon theophrasti [1]) | K: Lolium multiflorum Lam., herbicidal effect grade (Lolium multiflorum Lam.) | G: Setaria viridis, herbicidal effect grade (Setaria viridis) | M: Abutilon theophrasti, herbicidal effect grade (Abutilon theophrasti [2]) | f: beet, effect on crop grade (beet [3]) | f (beet) effect on crop grade (beet [4]) | d (soybean) effect on crop grade (soybean) | I (Avena fatua) herbicidal effect grade (Avena fatua)
CON=C(C)CC1CC(OC(=O)COc2ccc(Br)cc2)=C(c2c(C)cc(C)cc2C)C1=O (stereo not drawn) [1-081] | 5 (Herbicidal ratio of 90% or more (almost completely withered)) | 4 (Herbicidal ratio of 70% or higher and lower than 90%) | 5 (Herbicidal ratio of 90% or more (almost completely withered)) | 5 (Herbicidal ratio of 90% or more (almost completely withered)) | 4 (Herbicidal ratio of 70% or higher and lower than 90%) | 0 (Herbicidal ratio of 5% or lower (almost no effect)) | 0 (Herbicidal ratio of 5% or lower (almost no effect)) | 1 (Herbicidal ratio of 5% or higher and lower than 20%) | 4 (Herbicidal ratio of 70% or higher and lower than 90%) | 3 (Herbicidal ratio of 40% or higher and lower than 70%) | 5 (Herbicidal ratio of 90% or more (almost completely withered)) | 5 (Herbicidal ratio of 90% or more (almost completely withered)) | – | – | – | – | – | – | – | –
CC(CC1CC(O)=C(c2c(C)cc(C)cc2C)C1=O)=NOCC(C)O (stereo not drawn) [1-027] | 4 (Herbicidal ratio of 70% or higher and lower than 90%) | – | – | – | – | – | – | – | 3 (Herbicidal ratio of 40% or higher and lower than 70%) | – | 5 (Herbicidal ratio of 90% or more (almost completely withered)) | 4 (Herbicidal ratio of 70% or higher and lower than 90%) | 0 (Herbicidal ratio of 5% or lower (almost no effect)) | 5 (Herbicidal ratio of 90% or more (almost completely withered)) | 5 (Herbicidal ratio of 90% or more (almost completely withered)) | 2 (Herbicidal ratio of 20% or higher and lower than 40%) | 0 (Herbicidal ratio of 5% or lower (almost no effect)) | 0 (Herbicidal ratio of 5% or lower (almost no effect)) | 0 (Herbicidal ratio of 5% or lower (almost no effect)) | 4 (Herbicidal ratio of 70% or higher and lower than 90%)
CCC(C)C(CC1CC(O)=C(c2c(C)cc(C)cc2C)C1=O)=NOC (stereo not drawn) [1-066] | 5 (Herbicidal ratio of 90% or more (almost completely withered)) | – | – | – | – | – | – | – | 0 (Herbicidal ratio of 5% or lower (almost no effect)) | – | 2 (Herbicidal ratio of 20% or higher and lower than 40%) | 2 (Herbicidal ratio of 20% or higher and lower than 40%) | 0 (Herbicidal ratio of 5% or lower (almost no effect)) | 5 (Herbicidal ratio of 90% or more (almost completely withered)) | 5 (Herbicidal ratio of 90% or more (almost completely withered)) | 1 (Herbicidal ratio of 5% or higher and lower than 20%) | 0 (Herbicidal ratio of 5% or lower (almost no effect)) | 0 (Herbicidal ratio of 5% or lower (almost no effect)) | 0 (Herbicidal ratio of 5% or lower (almost no effect)) | 0 (Herbicidal ratio of 5% or lower (almost no effect))
CON=C(CC1CC(O)=C(c2c(C)cc(C)cc2C)C1=O)c1ccccn1 (stereo not drawn) [1-045] | 3 (Herbicidal ratio of 40% or higher and lower than 70%) | – | – | – | – | – | – | – | 0 (Herbicidal ratio of 5% or lower (almost no effect)) | – | 4 (Herbicidal ratio of 70% or higher and lower than 90%) | 3 (Herbicidal ratio of 40% or higher and lower than 70%) | 0 (Herbicidal ratio of 5% or lower (almost no effect)) | 5 (Herbicidal ratio of 90% or more (almost completely withered)) | 5 (Herbicidal ratio of 90% or more (almost completely withered)) | 0 (Herbicidal ratio of 5% or lower (almost no effect)) | 0 (Herbicidal ratio of 5% or lower (almost no effect)) | 0 (Herbicidal ratio of 5% or lower (almost no effect)) | 0 (Herbicidal ratio of 5% or lower (almost no effect)) | 0 (Herbicidal ratio of 5% or lower (almost no effect))
CCCC(CC1CC(O)=C(c2c(C)cc(C)cc2C)C1=O)=NOC (stereo not drawn) [1-062] | 5 (Herbicidal ratio of 90% or more (almost completely withered)) | – | – | – | – | – | – | – | 0 (Herbicidal ratio of 5% or lower (almost no effect)) | – | 3 (Herbicidal ratio of 40% or higher and lower than 70%) | 3 (Herbicidal ratio of 40% or higher and lower than 70%) | 0 (Herbicidal ratio of 5% or lower (almost no effect)) | 5 (Herbicidal ratio of 90% or more (almost completely withered)) | 4 (Herbicidal ratio of 70% or higher and lower than 90%) | 0 (Herbicidal ratio of 5% or lower (almost no effect)) | 0 (Herbicidal ratio of 5% or lower (almost no effect)) | 0 (Herbicidal ratio of 5% or lower (almost no effect)) | 0 (Herbicidal ratio of 5% or lower (almost no effect)) | 0 (Herbicidal ratio of 5% or lower (almost no effect))
CON=C(C)CC1CC(OC)=C(c2c(C)cc(C)cc2C)C1=O (stereo not drawn) [1-001, 2-mesityl-3-methoxy-5-{2-(methoxyimino)propyl}cyclopent-2-enone] | 0 (Herbicidal ratio of 5% or lower (almost no effect)) | – | – | – | – | – | – | – | 0 (Herbicidal ratio of 5% or lower (almost no effect)) | – | 0 (Herbicidal ratio of 5% or lower (almost no effect)) | 0 (Herbicidal ratio of 5% or lower (almost no effect)) | 0 (Herbicidal ratio of 5% or lower (almost no effect)) | 0 (Herbicidal ratio of 5% or lower (almost no effect)) | 0 (Herbicidal ratio of 5% or lower (almost no effect)) | 0 (Herbicidal ratio of 5% or lower (almost no effect)) | 0 (Herbicidal ratio of 5% or lower (almost no effect)) | 0 (Herbicidal ratio of 5% or lower (almost no effect)) | 0 (Herbicidal ratio of 5% or lower (almost no effect)) | 0 (Herbicidal ratio of 5% or lower (almost no effect))
